Species on record: Rattus norvegicus
Assay: Open TG-GATES - Regimen: Single
Assay type: toxicity, organism-based, Sprague-Dawley
Parameters: regimen Single, gender Male, age 6 weeks
Details: in vivo, iv, route intravenous injection; for Bas / Eos / Fbg / Ht / Lym / MCHC / MCV / Mono / PT / Plat / RBC / Ret / WBC / APTT / Hb / MCH / Neu: tissue Blood; for KIDNEY_L / KIDNEY_R / KIDNEY_TOTAL: tissue Kidney; for LIVER: tissue Liver
[1] = 0 mg/kg, 3 h, dose level Control
[2] = 0 mg/kg, 3 h, tissue Plasma, dose level Control
[3] = 0 mg/kg, 6 h, dose level Control
[4] = 0 mg/kg, 6 h, tissue Plasma, dose level Control
[5] = 0 mg/kg, 9 h, dose level Control
[6] = 0 mg/kg, 9 h, tissue Plasma, dose level Control
[7] = 0 mg/kg, 24 h, dose level Control
[8] = 0 mg/kg, 24 h, tissue Plasma, dose level Control
[9] = 1 mg/kg, 3 h, dose level Middle
[10] = 1 mg/kg, 3 h, tissue Plasma, dose level Middle
[11] = 1 mg/kg, 6 h, dose level Middle
[12] = 1 mg/kg, 6 h, tissue Plasma, dose level Middle

CISPLATIN
TERMINAL_BW [1]: 217.6 g | Bas [1]: 0% | Eos [1]: 1% | Fbg [1]: 292.4 mg/dL | Ht [1]: 40.6% | Lym [1]: 82.4% | MCHC [1]: 32.6% | MCV [1]: 65.7 fL | Mono [1]: 2.2% | PT [1]: 15.3 s | Plat [1]: 125.7 x10_4/uL | RBC [1]: 617.8 x10_4/ul | Ret [1]: 6.8% | WBC [1]: 111 x10_2/uL | KIDNEY_L [1]: 1 g | KIDNEY_R [1]: 1 g | KIDNEY_TOTAL [1]: 1.9 g | ALP [2]: 1441.2 IU/L | ALT [2]: 48.4 IU/L | AST [2]: 80.6 IU/L | BUN [2]: 13.6 mg/dL | CRE [2]: 0.2 mg/dL | Ca [2]: 11 mg/dL | DBIL [2]: 0 mg/dL | IP [2]: 8.7 mg/dL | K [2]: 4.2 meq/L | LDH [2]: 188.6 IU/L | PL [2]: 126.6 mg/dL | RALB [2]: 2.9 g/dL | TBIL [2]: 0.02 mg/dL | TC [2]: 71 mg/dL | TG [2]: 54.8 mg/dL | TP [2]: 5.4 g/dL | gamma-GTP [2]: 2 IU/L | TERMINAL_BW [3]: 210.4 g | APTT [3]: 22.8 s | Bas [3]: 0% | Eos [3]: 1% | Fbg [3]: 275.4 mg/dL | Hb [3]: 13 g/dL | Ht [3]: 39.7% | Lym [3]: 83.4% | MCH [3]: 21.1 pg | MCHC [3]: 32.7% | MCV [3]: 64.3 fL | Mono [3]: 3% | Plat [3]: 115.2 x10_4/uL | RBC [3]: 617.6 x10_4/ul | Ret [3]: 6.5% | WBC [3]: 152.3 x10_2/uL | KIDNEY_L [3]: 0.9 g | KIDNEY_R [3]: 1 g | KIDNEY_TOTAL [3]: 1.9 g | LIVER [3]: 9.2 g | ALP [4]: 1766.6 IU/L | ALT [4]: 44 IU/L | AST [4]: 76.8 IU/L | BUN [4]: 12.6 mg/dL | CRE [4]: 0.2 mg/dL | DBIL [4]: 0 mg/dL | IP [4]: 9.5 mg/dL | K [4]: 4.5 meq/L | LDH [4]: 165.8 IU/L | Na [4]: 139.2 meq/L | PL [4]: 128.6 mg/dL | RALB [4]: 2.8 g/dL | TBIL [4]: 0 mg/dL | TC [4]: 67.2 mg/dL | TG [4]: 81.6 mg/dL | TP [4]: 5.2 g/dL | gamma-GTP [4]: 1.6 IU/L | TERMINAL_BW [5]: 208.8 g | APTT [5]: 24.1 s | Bas [5]: 0% | Eos [5]: 0.6% | Fbg [5]: 257.6 mg/dL | Hb [5]: 13 g/dL | Ht [5]: 39.9% | Lym [5]: 79.8% | MCHC [5]: 32.7% | MCV [5]: 64 fL | Mono [5]: 2.4% | Neu [5]: 16.4% | Plat [5]: 119.1 x10_4/uL | RBC [5]: 623 x10_4/ul | Ret [5]: 5.8% | WBC [5]: 90.6 x10_2/uL | KIDNEY_L [5]: 0.9 g | KIDNEY_R [5]: 1 g | KIDNEY_TOTAL [5]: 1.9 g | LIVER [5]: 8.9 g | ALP [6]: 1337.6 IU/L | ALT [6]: 39.8 IU/L | AST [6]: 74.2 IU/L | BUN [6]: 12.8 mg/dL | CRE [6]: 0.1 mg/dL | DBIL [6]: 0 mg/dL | GLC [6]: 184.8 mg/dL | K [6]: 4.2 meq/L | LDH [6]: 139.8 IU/L | Na [6]: 139.8 meq/L | PL [6]: 130.2 mg/dL | RALB [6]: 2.9 g/dL | TBIL [6]: 0.02 mg/dL | TP [6]: 5.4 g/dL | gamma-GTP [6]: 1.6 IU/L | TERMINAL_BW [7]: 232.1 g | APTT [7]: 22.3 s | Bas [7]: 0% | Eos [7]: 1% | Fbg [7]: 282.6 mg/dL | Ht [7]: 40.2% | Lym [7]: 81.2% | MCH [7]: 21.1 pg | MCV [7]: 65 fL | Mono [7]: 2.8% | Plat [7]: 123 x10_4/uL | RBC [7]: 617.6 x10_4/ul | Ret [7]: 6.3% | WBC [7]: 84 x10_2/uL | KIDNEY_L [7]: 1 g | KIDNEY_R [7]: 1.1 g | KIDNEY_TOTAL [7]: 2.1 g | ALP [8]: 1431.4 IU/L | ALT [8]: 47.4 IU/L | AST [8]: 74.8 IU/L | BUN [8]: 17.2 mg/dL | CRE [8]: 0.2 mg/dL | DBIL [8]: 0 mg/dL | IP [8]: 7.7 mg/dL | K [8]: 4.4 meq/L | LDH [8]: 177.8 IU/L | PL [8]: 150.4 mg/dL | RALB [8]: 3 g/dL | TBIL [8]: 0.014 mg/dL | TC [8]: 80.2 mg/dL | TG [8]: 98.4 mg/dL | TP [8]: 5.6 g/dL | gamma-GTP [8]: 1.6 IU/L | TERMINAL_BW [9]: 215.5 g | APTT [9]: 22.6 s | Bas [9]: 0% | Eos [9]: 1% | Fbg [9]: 275.8 mg/dL | Hb [9]: 12.7 g/dL | Ht [9]: 38.9% | Lym [9]: 75% | MCH [9]: 21.1 pg | MCHC [9]: 32.7% | MCV [9]: 64.5 fL | Mono [9]: 2.6% | Plat [9]: 127.7 x10_4/uL | RBC [9]: 602.2 x10_4/ul | Ret [9]: 6.6% | WBC [9]: 89.5 x10_2/uL | KIDNEY_L [9]: 1 g | KIDNEY_R [9]: 1 g | KIDNEY_TOTAL [9]: 2 g | LIVER [9]: 10 g | ALP [10]: 1623.4 IU/L | ALT [10]: 38.8 IU/L | BUN [10]: 13 mg/dL | CRE [10]: 0.2 mg/dL | DBIL [10]: 0 mg/dL | GLC [10]: 175.4 mg/dL | IP [10]: 8.9 mg/dL | K [10]: 4.2 meq/L | LDH [10]: 152.2 IU/L | Na [10]: 139.6 meq/L | PL [10]: 132.4 mg/dL | RALB [10]: 2.8 g/dL | TBIL [10]: 0.014 mg/dL | TC [10]: 75 mg/dL | TG [10]: 80.6 mg/dL | TP [10]: 5.2 g/dL | gamma-GTP [10]: 1.4 IU/L | TERMINAL_BW [11]: 216 g | APTT [11]: 22.5 s | Bas [11]: 0% | Eos [11]: 1% | Fbg [11]: 275 mg/dL | Hb [11]: 13 g/dL | Ht [11]: 39.9% | Lym [11]: 77% | MCHC [11]: 32.6% | MCV [11]: 63.4 fL | Mono [11]: 3% | Neu [11]: 17.8% | PT [11]: 15.4 s | Plat [11]: 128.4 x10_4/uL | RBC [11]: 629.4 x10_4/ul | Ret [11]: 6.1% | WBC [11]: 106.4 x10_2/uL | KIDNEY_L [11]: 1 g | KIDNEY_R [11]: 1 g | KIDNEY_TOTAL [11]: 2 g | LIVER [11]: 9.4 g | ALP [12]: 1530.2 IU/L | ALT [12]: 42.8 IU/L | AST [12]: 75.8 IU/L | CRE [12]: 0.1 mg/dL | DBIL [12]: 0 mg/dL | IP [12]: 9.6 mg/dL | K [12]: 4.4 meq/L | LDH [12]: 159.6 IU/L | Na [12]: 138.6 meq/L | PL [12]: 135.6 mg/dL | RALB [12]: 2.9 g/dL | TBIL [12]: 0 mg/dL | TC [12]: 73.2 mg/dL | TG [12]: 92.2 mg/dL | TP [12]: 5.4 g/dL | gamma-GTP [12]: 2 IU/L

— ChEMBL document CHEMBL3885861, “Open TG-GATES”
